Drawing on the supplement of paper PMC10307832, this text covers relative viability for four cell lines.

What all share (assay): relative viability (nuclei count vs DMSO), 5 days (fraction); higher = more cells survive
Compound in the experiment “Cediranib + Foretinib”: COc1cc2c(Oc3ccc4[nH]c(C)cc4c3F)ncnc2cc1OCCCN1CCCC1 [Cediranib] + COc1cc2c(Oc3ccc(NC(=O)C4(C(=O)Nc5ccc(F)cc5)CC4)cc3F)ccnc2cc1OCCCN1CCOCC1 [Foretinib] (partner 0.25 µM)
In short, it runs like this: (§1)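 Relative viability was taken as the ratio of nuclei in treated wells to nuclei in vehicle wells. Lung cancer cell lines in 1536-well plates received compounds by pin tool one day after seeding, either one drug alone or a fixed anchor-drug dose plus five library-drug doses (not always all listed) in √10 steps. Nuclei were counted on 4× images after 5 days of treatment, and values are medians of duplicate plates.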

Compound in the experiment “Decitabine + Alpelisib”: Nc1ncn([C@H]2C[C@H](O)[C@@H](CO)O2)c(=O)n1 [Decitabine] + Cc1nc(NC(=O)N2CCC[C@H]2C(N)=O)sc1-c1ccnc(C(C)(C)C(F)(F)F)c1 [Alpelisib] (partner 2 µM)
Summed up: as §1

Compound in the experiment “Decitabine + Pemetrexed”: Nc1ncn([C@H]2C[C@H](O)[C@@H](CO)O2)c(=O)n1 [Decitabine] + Nc1nc2[nH]cc(CCc3ccc(C(=O)N[C@@H](CCC(=O)O)C(=O)O)cc3)c2c(=O)[nH]1 [Pemetrexed] (partner 0.2 µM)
Summed up: as §1

Compound in the experiment “Halofuginone + Lapatinib”: O=C(C[C@H]1NCCC[C@@H]1O)Cn1cnc2cc(Br)c(Cl)cc2c1=O (racemic) [Halofuginone] + CS(=O)(=O)CCNCc1ccc(-c2ccc3ncnc(Nc4ccc(OCc5cccc(F)c5)c(Cl)c4)c3c2)o1 [Lapatinib] (partner 2 µM)
In short, it runs like this:
as §1

Turning to A-427, the relative viability turned out to be 1.12 with Cediranib + Foretinib (first compound 0.04 µM); 0.948 in the experiment with Cediranib + Foretinib (first compound 0.4 µM); 0.925 in the experiment with Cediranib + Foretinib (first compound 1.265 µM); 0.942 in the experiment with Cediranib + Foretinib (first compound 4 µM); 0.695 with Decitabine + Alpelisib (first compound 0.04 µM); 0.462 in the experiment with Decitabine + Alpelisib (first compound 0.1265 µM). The relative viability worked out at 0.303 with Decitabine + Alpelisib (first compound 0.4 µM); 0.265 in the experiment with Decitabine + Alpelisib (first compound 1.265 µM); 0.232 with Decitabine + Alpelisib (first compound 4 µM); 0.847 in the experiment with Decitabine + Pemetrexed (first compound 0.04 µM); 0.779 in the experiment with Decitabine + Pemetrexed (first compound 0.1265 µM); 0.466 in the experiment with Decitabine + Pemetrexed (first compound 0.4 µM). Further, the relative viability with Decitabine + Pemetrexed (first compound 1.265 µM) came out at 0.474; in the experiment with Decitabine + Pemetrexed (first compound 4 µM), 0.474; in the experiment with Halofuginone + Lapatinib (first compound 0.001 µM), 1.08; with Halofuginone + Lapatinib (first compound 0.003162 µM) it was 0.977; with Halofuginone + Lapatinib (first compound 0.01 µM) it was 1.01; in the experiment with Halofuginone + Lapatinib (first compound 0.03162 µM), 1.07. The relative viability with Halofuginone + Lapatinib (first compound 0.1 µM) was 1.07.
Consider NCI-H1651, for which the relative viability amounted to 0.827 in the experiment with Cediranib + Foretinib (first compound 0.04 µM); 0.763 with Cediranib + Foretinib (first compound 0.1265 µM); 0.685 in the experiment with Cediranib + Foretinib (first compound 0.4 µM); 0.831 with Cediranib + Foretinib (first compound 1.265 µM); 0.829 with Cediranib + Foretinib (first compound 4 µM); 0.834 with Decitabine + Alpelisib (first compound 0.04 µM). The relative viability in the experiment with Decitabine + Alpelisib (first compound 0.1265 µM) is 0.902; with Decitabine + Alpelisib (first compound 0.4 µM), 0.861; with Decitabine + Alpelisib (first compound 1.265 µM), 0.718; in the experiment with Decitabine + Alpelisib (first compound 4 µM) it was 0.633; with Decitabine + Pemetrexed (first compound 0.04 µM) it was 0.543; in the experiment with Decitabine + Pemetrexed (first compound 0.1265 µM), 0.43. In addition, the relative viability with Decitabine + Pemetrexed (first compound 0.4 µM) was 0.434; in the experiment with Decitabine + Pemetrexed (first compound 1.265 µM) it was 0.331; with Decitabine + Pemetrexed (first compound 4 µM) it was 0.278; in the experiment with Halofuginone + Lapatinib (first compound 0.001 µM), 0.939; in the experiment with Halofuginone + Lapatinib (first compound 0.003162 µM) it was 0.908; with Halofuginone + Lapatinib (first compound 0.01 µM), 0.763. For the same cell line, the relative viability with Halofuginone + Lapatinib (first compound 0.03162 µM) is 0.768; in the experiment with Halofuginone + Lapatinib (first compound 0.1 µM), 0.34.
With NCI-H1793, the relative viability with Cediranib + Foretinib (first compound 0.04 µM) was determined as 0.758; with Cediranib + Foretinib (first compound 0.1265 µM), 0.931; with Cediranib + Foretinib (first compound 0.4 µM) it was 0.698; in the experiment with Cediranib + Foretinib (first compound 4 µM), 0.672; with Decitabine + Alpelisib (first compound 0.04 µM), 0.695; with Decitabine + Alpelisib (first compound 0.1265 µM), 0.565. Further, the relative viability turned out to be 0.573 in the experiment with Decitabine + Alpelisib (first compound 0.4 µM); 0.433 with Decitabine + Alpelisib (first compound 1.265 µM); 0.392 in the experiment with Decitabine + Alpelisib (first compound 4 µM); 0.692 with Decitabine + Pemetrexed (first compound 0.04 µM); 0.875 with Decitabine + Pemetrexed (first compound 0.1265 µM); 0.511 in the experiment with Decitabine + Pemetrexed (first compound 0.4 µM). Besides, the relative viability turned out to be 0.44 with Decitabine + Pemetrexed (first compound 1.265 µM); 0.303 with Decitabine + Pemetrexed (first compound 4 µM); 0.775 with Halofuginone + Lapatinib (first compound 0.001 µM); 0.832 with Halofuginone + Lapatinib (first compound 0.003162 µM); 0.707 with Halofuginone + Lapatinib (first compound 0.01 µM); 0.811 in the experiment with Halofuginone + Lapatinib (first compound 0.03162 µM). For the same cell line, the relative viability with Halofuginone + Lapatinib (first compound 0.1 µM) worked out at 0.589.
Take NCI-H520: the relative viability turned out to be 0.859 with Cediranib + Foretinib (first compound 0.04 µM); 0.656 with Cediranib + Foretinib (first compound 0.1265 µM); 0.626 with Cediranib + Foretinib (first compound 0.4 µM); 0.731 with Cediranib + Foretinib (first compound 1.265 µM); 0.576 with Cediranib + Foretinib (first compound 4 µM); 0.896 in the experiment with Decitabine + Alpelisib (first compound 0.04 µM). The relative viability in the experiment with Decitabine + Alpelisib (first compound 0.1265 µM) was determined as 0.69; with Decitabine + Alpelisib (first compound 0.4 µM), 0.597; in the experiment with Decitabine + Alpelisib (first compound 1.265 µM), 0.369; in the experiment with Decitabine + Alpelisib (first compound 4 µM) it was 0.337; with Decitabine + Pemetrexed (first compound 0.04 µM) it was 0.545; with Decitabine + Pemetrexed (first compound 0.1265 µM), 0.468. Also, the relative viability with Decitabine + Pemetrexed (first compound 0.4 µM) stood at 0.477; in the experiment with Decitabine + Pemetrexed (first compound 1.265 µM) it was 0.317; with Decitabine + Pemetrexed (first compound 4 µM), 0.293; with Halofuginone + Lapatinib (first compound 0.001 µM), 0.98; with Halofuginone + Lapatinib (first compound 0.003162 µM), 0.811; with Halofuginone + Lapatinib (first compound 0.01 µM), 0.96. Besides, the figures for the relative viability with Halofuginone + Lapatinib (first compound 0.03162 µM) and in the experiment with Halofuginone + Lapatinib (first compound 0.1 µM) were 0.704 and 0.401, respectively.
